Among the data in ChEMBL document CHEMBL3886216, “Triazine carboxamides as sodium channel blockers” (2015) are IC50 values, retold here.

Sequence of Sodium channel protein type 9 subunit alpha (Q15858 whole entry): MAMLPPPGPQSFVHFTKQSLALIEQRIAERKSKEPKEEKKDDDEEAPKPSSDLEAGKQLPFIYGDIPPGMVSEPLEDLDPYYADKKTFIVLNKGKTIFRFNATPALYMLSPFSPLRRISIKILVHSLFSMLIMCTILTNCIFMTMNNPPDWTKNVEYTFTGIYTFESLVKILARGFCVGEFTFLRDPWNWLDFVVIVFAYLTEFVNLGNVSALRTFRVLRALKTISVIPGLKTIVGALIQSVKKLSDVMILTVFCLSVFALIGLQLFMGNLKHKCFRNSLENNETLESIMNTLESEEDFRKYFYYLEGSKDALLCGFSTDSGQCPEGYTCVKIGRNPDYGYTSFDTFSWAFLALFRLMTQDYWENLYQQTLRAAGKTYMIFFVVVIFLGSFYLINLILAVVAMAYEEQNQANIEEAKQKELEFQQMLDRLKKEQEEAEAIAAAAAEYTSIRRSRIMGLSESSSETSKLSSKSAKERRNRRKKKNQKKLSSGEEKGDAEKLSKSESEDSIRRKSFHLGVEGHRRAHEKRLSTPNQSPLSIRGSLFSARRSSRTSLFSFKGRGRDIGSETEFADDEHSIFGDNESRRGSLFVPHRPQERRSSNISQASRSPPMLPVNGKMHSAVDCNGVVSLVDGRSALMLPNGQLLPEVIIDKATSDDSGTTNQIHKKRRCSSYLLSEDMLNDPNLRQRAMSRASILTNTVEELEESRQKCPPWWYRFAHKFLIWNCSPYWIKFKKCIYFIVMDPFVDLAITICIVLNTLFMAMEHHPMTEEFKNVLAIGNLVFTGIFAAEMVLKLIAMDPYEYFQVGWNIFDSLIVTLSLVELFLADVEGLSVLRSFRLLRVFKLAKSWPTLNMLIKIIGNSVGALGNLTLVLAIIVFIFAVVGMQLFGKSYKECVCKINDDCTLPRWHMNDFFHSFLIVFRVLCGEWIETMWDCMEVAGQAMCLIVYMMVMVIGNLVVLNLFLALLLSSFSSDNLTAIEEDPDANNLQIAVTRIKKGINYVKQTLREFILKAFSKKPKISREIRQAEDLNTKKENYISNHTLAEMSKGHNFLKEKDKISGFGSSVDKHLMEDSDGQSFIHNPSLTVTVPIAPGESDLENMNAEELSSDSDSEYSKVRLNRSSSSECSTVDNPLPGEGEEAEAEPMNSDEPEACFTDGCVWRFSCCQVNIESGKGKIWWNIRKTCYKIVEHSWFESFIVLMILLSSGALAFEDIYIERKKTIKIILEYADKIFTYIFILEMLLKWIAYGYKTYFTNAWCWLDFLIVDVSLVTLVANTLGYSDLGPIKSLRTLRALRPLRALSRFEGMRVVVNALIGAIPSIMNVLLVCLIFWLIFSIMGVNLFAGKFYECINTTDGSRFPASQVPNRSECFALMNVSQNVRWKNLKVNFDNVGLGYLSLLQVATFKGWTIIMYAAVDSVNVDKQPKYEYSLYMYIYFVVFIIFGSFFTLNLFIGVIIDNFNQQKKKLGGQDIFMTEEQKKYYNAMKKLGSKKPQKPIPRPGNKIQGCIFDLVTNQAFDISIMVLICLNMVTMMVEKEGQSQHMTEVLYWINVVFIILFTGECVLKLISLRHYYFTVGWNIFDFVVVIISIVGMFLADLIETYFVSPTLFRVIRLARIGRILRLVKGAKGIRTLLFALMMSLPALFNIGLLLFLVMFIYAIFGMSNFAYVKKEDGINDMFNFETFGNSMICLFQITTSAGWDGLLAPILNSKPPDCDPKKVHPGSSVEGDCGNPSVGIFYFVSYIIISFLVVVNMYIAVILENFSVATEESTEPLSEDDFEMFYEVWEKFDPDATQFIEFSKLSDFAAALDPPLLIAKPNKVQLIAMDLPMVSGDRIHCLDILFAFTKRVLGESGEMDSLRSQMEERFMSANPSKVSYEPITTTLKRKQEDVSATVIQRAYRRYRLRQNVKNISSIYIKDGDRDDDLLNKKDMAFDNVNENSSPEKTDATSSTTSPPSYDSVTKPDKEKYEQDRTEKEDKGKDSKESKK

The assay concerns the target Sodium channel protein type 9 subunit alpha (Homo sapiens, UniProt Q15858). As to the kind of experiment: FLIPR Assay: […] Sodium Dye Assay with KCl: Cells were prepared by plating the recombinant HEK293 cells or other host cells expressing either recombinant or non-recombinant, native, Nav1.7 alpha subunit, alone or in combination with various beta and gamma subunits at a density of ~40,000 cells/well into a 96-well black, clear-bottom, PDL-coated plate. The assay can be adapted to 384-well or 1,536-well format, if desired, using proportionately fewer cells and less media. The plate was then incubated in growth media, with or without selective antibiotic, overnight at 37 C. at 5% CO2, 95% humidity, in preparation for the assay. For counter-screens of other voltage-gated sodium channels, the procedure was very similar, though optimal densities of cells, media and subsequent assay components can be fine-tuned for the particular cell line or isoform. […] Membrane Potential Assay with KCl: Cells are prepared by plating the recombinant HEK293 cells. It counts as cell-based.
What is called IC50 is the concentration needed to halve the response being measured. Regarding `N#Cc1nc(-c2ccc(Oc3ccc(OC(F)(F)F)cc3)cc2)nc(N2CCOCC2)n1`, the IC50 was above 20 µM.
The same measure for `NC(=O)c1nc(N[C@H]2CCNC2=O)nc(-c2ccc(Oc3ccc(C(F)(F)F)cn3)cc2)n1`: 1.8 µM.
In the case of `N#Cc1nc(N[C@H]2CCNC2=O)nc(-c2ccc(Oc3ccc(C(F)(F)F)cn3)cc2)n1`, the IC50 is above 20 µM.
